According to ChEMBL document CHEMBL5576126, “Discovery of Novel, Selective, and Nonbasic Agonists for the Kappa-Opioid Receptor Determined by Salvinorin A-Based Virtual Screening” (J Med Chem, 2024):
Calls of active or inactive are those of the source. No cut-off for these calls is given here.

How the values were obtained:
[1] = target: Delta-type opioid receptor (Homo sapiens) (UniProt P41143); test: Binding affinity to human Delta-opioid receptor expressed in CHO cell membrane assessed as inhibition of [3H]DPDPE binding to DOR at 10 uM incubated for 60 mins by radioligand binding assay; format: cell membranes
Delta-type opioid receptor (Homo sapiens), sequence (P41143 whole entry): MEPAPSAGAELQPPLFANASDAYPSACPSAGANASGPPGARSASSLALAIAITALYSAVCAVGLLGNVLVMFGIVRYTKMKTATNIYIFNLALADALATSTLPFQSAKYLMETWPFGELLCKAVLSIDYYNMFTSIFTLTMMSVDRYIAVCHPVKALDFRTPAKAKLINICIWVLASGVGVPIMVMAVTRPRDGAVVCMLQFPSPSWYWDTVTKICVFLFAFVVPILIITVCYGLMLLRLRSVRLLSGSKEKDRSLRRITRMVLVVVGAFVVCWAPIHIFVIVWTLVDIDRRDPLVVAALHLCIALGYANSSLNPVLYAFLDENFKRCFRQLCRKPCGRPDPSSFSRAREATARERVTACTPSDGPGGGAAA

[2] = target: Kappa-type opioid receptor (Homo sapiens) (UniProt P41145); test: Binding affinity to human Kappa-opioid receptor expressed in CHO cell membrane assessed as inhibition of [3H]-U69593 binding to KOR incubated for 60 mins by radioligand binding assay; format: cell membranes
Kappa-type opioid receptor (Homo sapiens), sequence (P41145 whole entry, the tested form may be a part): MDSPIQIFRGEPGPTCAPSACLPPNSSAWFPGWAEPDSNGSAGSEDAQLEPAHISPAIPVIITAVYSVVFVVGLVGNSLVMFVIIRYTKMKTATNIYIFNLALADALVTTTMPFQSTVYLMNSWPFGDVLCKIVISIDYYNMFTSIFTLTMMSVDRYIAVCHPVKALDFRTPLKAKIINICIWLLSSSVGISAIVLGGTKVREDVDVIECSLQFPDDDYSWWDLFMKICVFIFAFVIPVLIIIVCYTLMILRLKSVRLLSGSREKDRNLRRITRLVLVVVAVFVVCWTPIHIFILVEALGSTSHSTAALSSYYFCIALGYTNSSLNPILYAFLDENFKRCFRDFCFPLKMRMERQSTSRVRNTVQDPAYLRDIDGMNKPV

[3] = target: Kappa-type opioid receptor (Homo sapiens) (UniProt P41145); test: Potency index, ratio of SalA-VS-07 Ki to test compound Ki for Binding affinity to human Kappa-opioid receptor expressed in CHO cell membrane assessed as inhibition of [3H]-U69593 binding to KOR; format: cell membranes; conditions: filed as agonist
[4] = target: Kappa-type opioid receptor (Homo sapiens) (UniProt P41145); test: Agonist activity at human Kappa-opioid receptor expressed in human U2OS cells co-expressing enzyme acceptor tagged beta-arrestin2 fusion protein assessed as increase in beta-arrestin2 recruitment at 10 uM incubated for 180 mins by DiscoverX pathHunter express beta-arrestin2 assay; format: functional, cell-based
[5] = target: Kappa-type opioid receptor (Homo sapiens) (UniProt P41145); test: Agonist activity at human Kappa-opioid receptor expressed in CHO cell membrane assessed as induction of [35S]GTPgammaS binding by measuring G protein activation incubated for 60 mins by liquid scintillation counting assay; format: functional, cell membranes

Compound | Activity [1] | Activity ([2]; filed as agonist) | Ratio Ki [3] | Activity [4] | Activity ([2]; filed as partial agonist) | Activity [5]
CCO[C@@]12Cc3c([nH]c4ccccc34)[C@]3(C)Oc4c(O)ccc5c4[C@@]31CCN(CC1CC1)C2C5 | Active | – | – | – | – | –
Cc1cc2n(n1)C1(CCN(C(=O)c3cccc(F)c3)CC1)CC(=O)N2CC1CC1 | inactive | Dose-Dependent Effect | 6 | inactive | – | –
Cc1cc2n(n1)C1(CCN(C(=O)c3ccc(Cl)cc3)CC1)CC(=O)N2CC1CC1 | inactive | – | – | inactive | Dose-Dependent Effect | –
Cc1cc2n(n1)C1(CCN(C(=O)c3ccncc3)CC1)CC(=O)N2CC1CC1 | – | – | – | – | – | inactive
